This passage reports EC50 results from patent publication US20060045953A1 (priority 2004, published 2006).

The target in the assay is T1, hT1R1/hT1R3 umami receptor (Homo sapiens, UniProt Q7RTX0+Q7RTX1).
T1 construct: expressed in transfected cells; host or cells: HEK293 derivative stably expressing Gα15, clone I-17, expression induced with mifepristone
T1 sequence (Q7RTX1 21-841): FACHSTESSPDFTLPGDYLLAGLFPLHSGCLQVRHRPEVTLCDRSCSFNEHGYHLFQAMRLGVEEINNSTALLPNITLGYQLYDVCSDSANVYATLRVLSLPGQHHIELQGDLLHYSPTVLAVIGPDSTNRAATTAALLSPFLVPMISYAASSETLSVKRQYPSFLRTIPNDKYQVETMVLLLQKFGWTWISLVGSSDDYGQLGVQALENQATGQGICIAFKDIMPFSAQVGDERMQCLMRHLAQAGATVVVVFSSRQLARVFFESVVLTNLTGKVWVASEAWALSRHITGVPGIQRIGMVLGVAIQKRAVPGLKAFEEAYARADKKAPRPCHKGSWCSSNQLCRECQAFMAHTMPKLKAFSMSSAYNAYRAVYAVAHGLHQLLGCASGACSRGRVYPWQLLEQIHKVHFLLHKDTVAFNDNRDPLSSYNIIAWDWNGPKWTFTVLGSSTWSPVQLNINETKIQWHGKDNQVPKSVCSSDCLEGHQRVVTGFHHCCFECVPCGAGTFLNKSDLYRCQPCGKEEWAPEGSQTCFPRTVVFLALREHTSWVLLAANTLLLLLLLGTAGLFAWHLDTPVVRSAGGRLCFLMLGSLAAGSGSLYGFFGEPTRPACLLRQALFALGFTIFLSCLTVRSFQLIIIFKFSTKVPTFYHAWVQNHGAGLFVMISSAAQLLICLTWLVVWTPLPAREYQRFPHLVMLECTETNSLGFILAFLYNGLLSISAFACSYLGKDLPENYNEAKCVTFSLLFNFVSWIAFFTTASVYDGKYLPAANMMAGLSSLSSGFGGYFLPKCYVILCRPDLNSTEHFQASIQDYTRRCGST
T1 sequence (Q7RTX0 21-852): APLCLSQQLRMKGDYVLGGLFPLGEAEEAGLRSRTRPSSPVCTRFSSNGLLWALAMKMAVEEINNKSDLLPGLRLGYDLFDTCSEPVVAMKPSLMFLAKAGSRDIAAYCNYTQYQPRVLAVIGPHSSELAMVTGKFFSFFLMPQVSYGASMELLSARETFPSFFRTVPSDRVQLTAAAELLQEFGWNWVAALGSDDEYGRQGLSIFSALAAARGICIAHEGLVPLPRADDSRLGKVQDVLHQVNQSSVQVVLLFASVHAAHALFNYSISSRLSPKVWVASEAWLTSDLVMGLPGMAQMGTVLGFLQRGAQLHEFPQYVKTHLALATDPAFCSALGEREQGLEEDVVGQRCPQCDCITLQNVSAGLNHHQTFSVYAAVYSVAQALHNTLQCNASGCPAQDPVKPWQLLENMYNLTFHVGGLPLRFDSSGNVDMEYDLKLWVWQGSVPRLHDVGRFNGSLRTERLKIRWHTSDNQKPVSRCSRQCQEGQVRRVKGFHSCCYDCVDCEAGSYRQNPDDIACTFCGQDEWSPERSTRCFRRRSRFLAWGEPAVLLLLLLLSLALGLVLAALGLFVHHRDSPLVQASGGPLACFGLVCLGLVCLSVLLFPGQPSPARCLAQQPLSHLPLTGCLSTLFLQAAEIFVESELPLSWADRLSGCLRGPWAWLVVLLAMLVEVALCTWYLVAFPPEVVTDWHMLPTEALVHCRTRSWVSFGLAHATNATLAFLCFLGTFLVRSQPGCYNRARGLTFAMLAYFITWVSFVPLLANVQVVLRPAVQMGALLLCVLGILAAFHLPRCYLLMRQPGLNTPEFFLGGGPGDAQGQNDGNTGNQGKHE
Put plainly: In vitro hT1R1/hT1R3 umami taste receptor activation assay (FLIPR, dose response). Format: cell-based.

Where [1] appears, read: read-out: EC50 for activation of a hT1R1/hT1R3 umami receptor expressed in an HEK293 cell line.
Where [2] appears, read: Table C, Umami Ureas, read-out: Umami EC50.
Setting [3] is: Table A, Umami Amides, read-out: Umami EC50.

The structures appear in SMILES notation. Read-outs that look alike come from different tables or passages of the source.

In the case of `CCCC(CCC)NC(=O)c1cc2ccccc2n1C` [Example 37, N-(heptan-4-yl)-1-methyl-1H-indole-2-carboxamide], the EC50 under setting [1] worked out at 1790 nM.
Take `CCCC(CCC)NC(=O)Nc1ccc(OC)cc1Cl` [Example C21, 1-(2-chloro-4-methoxyphenyl)-3-(heptan-4-yl)urea]: under setting [2], the EC50 stood at 110 nM.
On to `CCCC(CCC)NC(=O)Nc1ccccc1F` [Example C4, 1-(2-fluorophenyl)-3-(heptan-4-yl)urea], for which, under setting [2], the EC50 worked out at 790 nM.
For the compound `CCCC(CCC)NC(=O)c1ccc2c(c1)OC(CC(=O)OCC)O2` (centres unmarked) [Example 19, Ethyl 2-(5-(heptan-4-ylcarbamoyl)benzo[d][1,3]dioxol-2-yl)acetate], the EC50 under setting [1] turned out to be 14000 nM.
Turning to `CCCC(NC(=O)c1ccc2nc(C)oc2c1)C(C)C` (centres unmarked) [Example A26, 2-methyl-N-(2-methylhexan-3-yl)benzo[d]oxazole-6-carboxamide], under setting [3], the EC50 came to 1600 nM.
For `CC(C)C[C@@H](NC(=O)c1ccc2c(c1)OCO2)C(=O)N(C)C` [Example 13, (R)-N-(1-(dimethylamino)-4-methyl-1-oxopentan-2-yl) benzo[d][1,3]dioxole-5-carboxamide], under setting [1], the EC50 was 1060 nM.
Turning to `CCCC(NC(=O)c1ccc(OC)c(C)c1)c1ccccc1` (centres unmarked) [Example 113, 4-Methoxy-3-methyl-N-(1-phenyl-butyl)-benzamide], the EC50 under setting [1] amounted to 2500 nM.
On the same count and under the same terms, to `COC(=O)[C@H](NC(=O)c1ccc2c(c1)OCO2)C(C)C` [Example 10, (R)-methyl 2-(benzo[d][1,3]dioxole-6-carboxamido)-3-methylbutanoate] belongs 1160 nM; to `CCCC(CC(C)C)NC(=O)/C=C/c1ccc(OC)cc1` (centres unmarked) [Example 79, 3-(4-Methoxy-phenyl)-N-(3-methyl-1-propyl-butyl)-acrylamide], 1840 nM.
Turning to `CCOc1ccc(NC(=O)NC2CCCCC2C)cc1` (centres unmarked) [Example C10, 1-(4-ethoxyphenyl)-3-(2-methylcyclohexyl)urea], under setting [2], the EC50 turned out to be 1510 nM.
In the case of `COC(=O)[C@@H](CC(C)C)NC(=O)c1ccc2c(c1)CCO2` [Example A46, (R)-methyl 2-(2,3-dihydrobenzofuran-5-carboxamido)-4-methylpentanoate], under setting [3], the EC50 came out at 1320 nM.
For `CCCC(CCC)NC(=O)/C=C/c1ccccc1F` [Example 85, 3-(2-Fluoro-phenyl)-N-(1-propyl-butyl)-acrylamide], under setting [1], the EC50 came to 160 nM.
Still for that read-out and setting: to `CCCC(CCC)NC(=O)c1ccc2c(c1)OC(C)(C)O2` [Example 20, N-(heptan-4-yl)-2,2-dimethylbenzo[d][1,3]dioxole-5-carboxamide] belongs 2700 nM.
For `CCCC(CC)NC(=O)c1ccc2c(c1)OCO2` (centres unmarked) [Example A53, N-(hexan-3-yl)benzo[d][1,3]dioxole-5-carboxamide], the EC50 under setting [3] worked out at 1830 nM.
On to `CCCC(CCC)NC(=O)c1cc2ccccc2[nH]1` [Example 35, N-(heptan-4-yl)-1H-indole-2-carboxamide], for which the EC50 under setting [1] was found to be 6800 nM.
On the same count and under the same terms, to `COc1ccccc1/C=C/C(=O)NC1CCCCC1C` (centres unmarked) [Example 89, 3-(2-Methoxy-phenyl)-N-(2-methyl-cyclohexyl)-acrylamide] belongs 3400 nM.
With `COc1ccc(C(=O)N[C@@H]2CCc3ccccc32)cc1C` [(R)-N-(2,3-dihydro-1H-inden-1-yl)-4-methoxy-3-methylbeuzamide], the EC50 (opposite enantiomers compared, read-out: AFFINITY FOR T1R1/T1R3 SAVORY RECEPTOR EC50 UM) was found to be 2130 nM.
Take `CCCC(CC(C)C)NC(=O)c1ccc2c(c1)OCO2` (centres unmarked) [Example 2, N-(2-methylheptan-4-yl)benzo[d][1,3]dioxole-5-carboxamide]: under setting [1], the EC50 is 220 nM.
With `CC(C)C[C@@H](NC(=O)c1ccc2c(c1)OCO2)C(=O)N1CCCC1CO` (stereo partly drawn) [Example 16, N-((R)-1-(2-(hydroxymethyl)pyrrolidin-1-yl)-4-methyl-1-oxopentan-2-yl)benzo[d][1,3]dioxole-5-carboxamide], the EC50 under setting [1] turned out to be 3000 nM.
Take `COc1ccccc1NC(=O)NC(C(C)C)C(C)C` [Example C17, 1-(2,4-dimethylpentan-3-yl)-3-(2-methoxyphenyl)urea]: the EC50 under setting [2] worked out at 240 nM.
